Data as given in ChEMBL document CHEMBL1201862, “PubChem BioAssay data set” (2004).
Calls of active or inactive are those of the source.

What was measured:
[1] = molecular target: Glyceraldehyde-3-phosphate dehydrogenase (Homo sapiens, UniProt P04406)
[2] = molecular target: T1, Bcl-2-related protein A1 (Mus musculus, UniProt Q07440); test: Bfl-1 inhibitors blocking BH3 peptide binding, confirmation, biochemical, TR-FRET, mouse Bfl-1 (AID 621);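 also: TR-FRET binding of GST-Bfl-1 to FITC-labelled Bid peptide via terbium antibody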
T1 sequence (Q07440 whole entry): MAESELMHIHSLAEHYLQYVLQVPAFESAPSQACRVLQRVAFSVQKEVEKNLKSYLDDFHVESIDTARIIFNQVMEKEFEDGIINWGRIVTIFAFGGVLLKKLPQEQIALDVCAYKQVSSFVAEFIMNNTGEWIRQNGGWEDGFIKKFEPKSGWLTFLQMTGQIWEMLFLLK

[3] = molecular target: T1, Bcl-2-related protein A1; test: Bfl-1 binding inhibitors, SAR follow-up, biochemical, fluorescence polarization (AID 1070)
[4] = cytotoxicity toward DRD oncogenic fibroblasts, dose response, cell-based, non-viral oncogenic, luminescence (AID 1934); type: functional; conditions: Homo sapiens
[5] = system: BJ; test: cytotoxicity toward BJ-TERT fibroblasts, dose response, cell-based, RAS-independent, luminescence (AID 1933); type: functional; conditions: Homo sapiens
[6] = Luminescence Cell-Based Dose Response HTS to Identify Inhibitors of 5'UTR Stem-Loop Driven Prion Protein mRNA Translation in H4 Neuroglioblastoma Cells. [Related pubchem assays: 1827 (Project Summary), 1813 (Primary HTS)]; type: functional
[7] = system: BJ; test: cytotoxicity toward Ras-transformed BJeLR fibroblasts, dose response, cell-based, alamar blue fluorescence, cherrypicked samples (AID 2631); type: functional; conditions: Homo sapiens;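 also: confirmatory dose-response assay in RAS-dependent BJ fibroblasts engineered with TERT, LT and ST, with cytotoxicity read by fluorescence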
[8] = molecular target: X-box-binding protein 1 (Homo sapiens, UniProt P17861); type: functional, Cricetulus griseus;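 also: confirmatory dose-response counter-screen serving a CHOP assay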
[9] = system: BJ; test: cells; type: functional, cell-based; conditions: Homo sapiens
[10] = system: BJ; test: cytotoxicity toward BJ-TERT-LT-ST fibroblasts, dose response, cell-based, RAS-independent, luminescence (AID 1935); type: functional; conditions: Homo sapiens;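 also: BJ fibroblasts immortalized with TERT plus LT and ST oncogenes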
[11] = inhibitors of firefly luciferase expression or activity, dose response, H4 neuroglioma cells, luminescence (AID 1990); type: functional, cell-based
[12] = inhibitors of SNCA 5'UTR-driven reporter translation, confirmation, H4 neuroglioma cells, luminescence (AID 1988); type: functional, cell-based
[13] = molecular target: Intestinal-type alkaline phosphatase (Homo sapiens, UniProt P09923); test: Dose Response confirmation of uHTS hits from a small molecule inhibitors of human intestinal alkaline phosphatase via a luminescent assay. [Related pubchem assays (depositor defined):AID2544, AID2574]; type: functional
[14] = molecular target: Nucleotide-binding oligomerization domain-containing protein 2 (Homo sapiens, UniProt Q9HC29); test: NOD2 signaling inhibitors, cell-based, luminescence, uHTS, HEK293 (AID 1566); type: functional
[15] = system: HEK293; test: cells; type: functional, cell-based; conditions: Homo sapiens
[16] = system: HEK293; test: NOD2 signaling inhibitors in MDP-stimulated cells, cell-based, uHTS, luminescence (AID 2001); type: functional; conditions: Homo sapiens
[17] = Shn3 3'UTR reporter inhibitors, dose response, cell-based, Clone20 osteoblasts, firefly luciferase, cherry-picked (AID 624132); type: functional;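 also: firefly luciferase luminescence from reporter carrying the Shn3 3'UTR in osteoblasts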
[18] = system: HEK293; test: cells; type: functional, cell-based; conditions: Homo sapiens; remark: listed apart in the source
[19] = control 3'UTR Renilla luciferase suppression, dose response, counter-screen for Shn3 inhibitor project, cell-based, Clone20-Shn3RL, cherry-picked (AID 624133); type: functional
[20] = system: HEK293; test: NOD1 signaling inhibitors, primary screen, cell-based, luminescence, uHTS (AID 1578); type: functional; conditions: Homo sapiens
[21] = inhibitors of clade B AD8 Env fusion, dose response, cell-based, cherry-pick (AID 652062); type: functional;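 also: luciferase signal from cell-cell fusion driven by HIV-1 clade B AD8 Env; potency is for inhibitors of fusion seen as a drop in luminescence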
[22] = system: HEK293; test: cells; type: functional, cell-based; conditions: Homo sapiens; remark: listed apart in the source
[23] = ZM109 Env clade C HIV-1 fusion inhibitors, dose response, HeLa effector, CEM target cells, luciferase, cherry-pick (AID 652058); type: functional, cell-based
[24] = HepG2 cell cytotoxicity, dose response, cytotoxicity control for Shn3 inhibitor project, CellTiter-Glo, cherry-picked (AID 624134); type: functional, cell-based
[25] = molecular target: T2, Aminopeptidase N (Plasmodium falciparum FcB1/Columbia, UniProt O96935); test: P. falciparum M1AAP inhibitors, biochemical, fluorogenic H-Leu-NHMec substrate, 1536-well (AID 1445); set-up: species or system Plasmodium falciparum 3D7, 3D7
T2 sequence (O96935 whole entry): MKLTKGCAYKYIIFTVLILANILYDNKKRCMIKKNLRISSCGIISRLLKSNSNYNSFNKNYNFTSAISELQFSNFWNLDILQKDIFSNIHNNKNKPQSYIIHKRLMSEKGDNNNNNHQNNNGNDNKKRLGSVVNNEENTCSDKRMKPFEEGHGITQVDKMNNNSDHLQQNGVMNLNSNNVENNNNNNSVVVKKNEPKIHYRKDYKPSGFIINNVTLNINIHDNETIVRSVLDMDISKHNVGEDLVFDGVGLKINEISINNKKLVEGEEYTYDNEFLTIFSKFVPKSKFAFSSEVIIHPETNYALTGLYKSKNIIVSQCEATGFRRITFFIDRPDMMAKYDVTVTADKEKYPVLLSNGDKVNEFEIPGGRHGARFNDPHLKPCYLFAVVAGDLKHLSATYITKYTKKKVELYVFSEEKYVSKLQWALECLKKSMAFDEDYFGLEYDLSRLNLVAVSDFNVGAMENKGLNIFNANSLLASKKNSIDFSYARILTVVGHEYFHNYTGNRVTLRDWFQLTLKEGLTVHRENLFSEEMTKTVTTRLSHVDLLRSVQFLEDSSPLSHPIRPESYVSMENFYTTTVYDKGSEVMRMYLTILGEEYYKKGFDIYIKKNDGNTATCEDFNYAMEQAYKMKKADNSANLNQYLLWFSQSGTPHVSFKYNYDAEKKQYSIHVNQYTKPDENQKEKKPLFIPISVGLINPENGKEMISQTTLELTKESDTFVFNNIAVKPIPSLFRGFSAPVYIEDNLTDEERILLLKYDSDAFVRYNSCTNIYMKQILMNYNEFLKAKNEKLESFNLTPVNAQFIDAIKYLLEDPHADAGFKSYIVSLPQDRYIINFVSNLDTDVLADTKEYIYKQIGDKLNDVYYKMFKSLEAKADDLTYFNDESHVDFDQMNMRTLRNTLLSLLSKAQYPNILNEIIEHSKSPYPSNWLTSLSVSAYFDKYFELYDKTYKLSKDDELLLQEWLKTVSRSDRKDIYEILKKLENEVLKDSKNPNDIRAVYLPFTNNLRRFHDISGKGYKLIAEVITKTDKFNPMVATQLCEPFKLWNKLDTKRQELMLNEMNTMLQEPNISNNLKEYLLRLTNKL

[26] = molecular target: T3, Leucine aminopeptidase (Plasmodium falciparum 3D7, UniProt Q8IL11); test: P. falciparum M17LAP inhibitors, primary screen, biochemical, fluorogenic H-Leu-NHMec substrate, 1536-well (AID 1619); type: functional
T3 sequence (Q8IL11 whole entry): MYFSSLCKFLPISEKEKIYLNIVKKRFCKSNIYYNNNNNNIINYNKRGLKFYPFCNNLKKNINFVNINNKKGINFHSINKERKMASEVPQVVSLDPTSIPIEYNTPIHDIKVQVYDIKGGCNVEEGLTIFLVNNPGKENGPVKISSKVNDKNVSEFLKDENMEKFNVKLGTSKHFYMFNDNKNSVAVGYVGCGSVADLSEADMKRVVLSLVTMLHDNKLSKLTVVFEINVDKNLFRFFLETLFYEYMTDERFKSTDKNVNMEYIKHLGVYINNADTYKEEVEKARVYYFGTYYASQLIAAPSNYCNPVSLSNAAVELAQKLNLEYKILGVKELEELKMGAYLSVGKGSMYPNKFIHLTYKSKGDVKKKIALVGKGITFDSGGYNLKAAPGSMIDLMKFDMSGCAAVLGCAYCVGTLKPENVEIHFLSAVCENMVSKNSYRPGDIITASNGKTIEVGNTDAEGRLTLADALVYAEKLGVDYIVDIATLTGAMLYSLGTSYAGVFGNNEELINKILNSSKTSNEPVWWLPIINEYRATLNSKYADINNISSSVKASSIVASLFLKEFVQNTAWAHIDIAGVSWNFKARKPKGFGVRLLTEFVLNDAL

[27] = inhibitors of Bluetongue virus cytopathic effect, confirmation, arbovirus, BSR cells (AID 1250); type: functional;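 also: protection from viral cytopathic effect measured as cell viability by ATP luminescence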
[28] = molecular target: T4, Calpain-2 catalytic subunit (Sus scrofa, UniProt P43367); test: pig calpain II inhibitor potency, dose response, biochemical, fluorogenic peptide substrate (AID 1420); type: functional
T4 sequence (P43367 whole entry): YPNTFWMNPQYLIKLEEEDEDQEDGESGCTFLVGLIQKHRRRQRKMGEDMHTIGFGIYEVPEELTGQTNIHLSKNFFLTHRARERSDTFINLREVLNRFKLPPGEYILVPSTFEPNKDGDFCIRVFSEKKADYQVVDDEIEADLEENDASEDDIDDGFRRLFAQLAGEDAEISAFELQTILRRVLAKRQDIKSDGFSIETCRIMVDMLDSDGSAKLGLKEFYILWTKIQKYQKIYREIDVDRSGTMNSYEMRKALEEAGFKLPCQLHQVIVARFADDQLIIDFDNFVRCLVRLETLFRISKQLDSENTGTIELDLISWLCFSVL

[29] = Luminescence Cell-Based Dose Confirmation HTS to Identify Inhibitors of Platelet Dense Granule Release. [Related pubchem assays: 1663 (Primary HTS), 1678 (Summary of Project)]; type: functional
[30] = molecular target: Luciferin 4-monooxygenase (Photinus pyralis, UniProt P08659); test: firefly luciferase enzyme inhibitors, dose response, biochemical, luminescence (AID 1891)
[31] = molecular target: Nonstructural protein 1 (Influenza A virus, UniProt Q194T2); type: functional, Influenza A virus (A/California/07/2009(H1N1))
[32] = cytotoxicity toward NIH3T3 fibroblasts, dose response, counter-screen, cell-based, ATP luminescence, mouse fibroblasts (AID 2010); type: functional;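 also: cells exposed to compound for about 90 hours before reading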
[33] = molecular target: G-protein coupled receptor 55 (Homo sapiens, UniProt Q9Y2T6); test: GPR55 agonists via beta-arrestin recruitment, primary screen, imaging, U2OS cells, beta-arrestin-GFP redistribution (AID 1961); type: functional
[34] = inhibitors of intracellular T. cruzi replication, confirmation, NIH3T3 host cells, beta-gal luminescence (AID 2044); type: functional, cell-based;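 also: intracellular parasites grown in NIH/3T3 mouse fibroblasts as host cells; luminescent beta-galactosidase reporter signal from transgenic T. cruzi replicating inside host cells; inhibitors lower the luminescence signal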
[35] = molecular target: T5, Hexokinase HKDC1 (Homo sapiens, UniProt Q2TB90); test: HKDC1 hexokinase inhibitors, dose response, biochemical, W721R variant (AID 504729); type: functional
T5 sequence (Q2TB90 whole entry): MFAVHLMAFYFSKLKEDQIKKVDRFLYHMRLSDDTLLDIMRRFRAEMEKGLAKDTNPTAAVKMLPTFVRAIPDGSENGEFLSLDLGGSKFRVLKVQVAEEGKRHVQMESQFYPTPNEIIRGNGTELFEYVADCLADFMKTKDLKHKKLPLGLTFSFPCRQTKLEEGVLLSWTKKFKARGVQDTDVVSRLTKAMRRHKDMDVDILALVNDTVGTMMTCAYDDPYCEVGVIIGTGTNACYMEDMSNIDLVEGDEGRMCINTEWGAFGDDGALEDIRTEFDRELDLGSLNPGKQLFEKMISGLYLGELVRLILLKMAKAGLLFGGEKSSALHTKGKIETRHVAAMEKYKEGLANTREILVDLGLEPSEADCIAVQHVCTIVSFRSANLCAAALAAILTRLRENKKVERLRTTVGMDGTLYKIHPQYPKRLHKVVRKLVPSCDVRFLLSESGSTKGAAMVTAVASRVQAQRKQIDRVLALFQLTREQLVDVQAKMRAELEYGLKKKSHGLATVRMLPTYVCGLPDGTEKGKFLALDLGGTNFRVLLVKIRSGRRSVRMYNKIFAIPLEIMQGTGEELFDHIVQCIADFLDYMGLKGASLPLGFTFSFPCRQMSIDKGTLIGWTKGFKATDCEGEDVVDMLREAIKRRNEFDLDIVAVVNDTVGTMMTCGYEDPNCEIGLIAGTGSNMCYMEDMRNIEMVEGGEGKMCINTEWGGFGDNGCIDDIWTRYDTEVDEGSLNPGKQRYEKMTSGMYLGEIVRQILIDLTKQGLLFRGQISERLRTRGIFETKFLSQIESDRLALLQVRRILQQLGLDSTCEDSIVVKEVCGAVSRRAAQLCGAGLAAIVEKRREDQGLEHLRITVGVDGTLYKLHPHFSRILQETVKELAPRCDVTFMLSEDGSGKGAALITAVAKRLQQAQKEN

Chain of G-protein coupled receptor 55 (Q9Y2T6 whole entry): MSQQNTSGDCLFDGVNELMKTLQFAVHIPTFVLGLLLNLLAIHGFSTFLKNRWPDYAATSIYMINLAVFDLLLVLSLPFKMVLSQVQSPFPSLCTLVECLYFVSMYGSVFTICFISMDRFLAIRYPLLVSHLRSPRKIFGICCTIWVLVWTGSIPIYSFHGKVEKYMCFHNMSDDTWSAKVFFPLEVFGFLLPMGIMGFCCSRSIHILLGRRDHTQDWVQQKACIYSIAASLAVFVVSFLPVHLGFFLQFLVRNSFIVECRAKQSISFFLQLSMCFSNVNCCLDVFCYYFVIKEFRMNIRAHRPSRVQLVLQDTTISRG
Chain of X-box-binding protein 1 (P17861 whole entry): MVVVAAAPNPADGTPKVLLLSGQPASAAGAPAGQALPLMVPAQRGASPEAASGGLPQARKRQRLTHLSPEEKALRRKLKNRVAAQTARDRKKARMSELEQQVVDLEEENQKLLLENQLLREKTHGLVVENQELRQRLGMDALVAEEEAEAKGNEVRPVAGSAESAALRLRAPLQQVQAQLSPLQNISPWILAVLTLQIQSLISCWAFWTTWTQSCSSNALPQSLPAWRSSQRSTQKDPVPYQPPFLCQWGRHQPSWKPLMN
Chain of Luciferin 4-monooxygenase (P08659 whole entry): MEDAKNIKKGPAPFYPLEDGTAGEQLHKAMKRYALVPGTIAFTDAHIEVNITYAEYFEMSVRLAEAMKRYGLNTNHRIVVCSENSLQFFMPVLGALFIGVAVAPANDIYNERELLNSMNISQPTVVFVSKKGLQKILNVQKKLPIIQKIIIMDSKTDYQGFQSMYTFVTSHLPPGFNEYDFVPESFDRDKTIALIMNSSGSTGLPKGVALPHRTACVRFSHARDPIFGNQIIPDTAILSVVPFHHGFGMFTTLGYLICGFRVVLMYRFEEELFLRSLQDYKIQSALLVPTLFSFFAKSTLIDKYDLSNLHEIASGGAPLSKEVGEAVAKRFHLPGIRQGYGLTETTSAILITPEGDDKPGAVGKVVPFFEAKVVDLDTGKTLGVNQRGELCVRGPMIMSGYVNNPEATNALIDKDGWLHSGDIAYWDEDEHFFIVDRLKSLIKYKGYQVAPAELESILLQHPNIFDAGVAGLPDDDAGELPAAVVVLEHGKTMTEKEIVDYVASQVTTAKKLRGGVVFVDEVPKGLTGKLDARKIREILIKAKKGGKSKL
Chain of Glyceraldehyde-3-phosphate dehydrogenase (P04406 whole entry): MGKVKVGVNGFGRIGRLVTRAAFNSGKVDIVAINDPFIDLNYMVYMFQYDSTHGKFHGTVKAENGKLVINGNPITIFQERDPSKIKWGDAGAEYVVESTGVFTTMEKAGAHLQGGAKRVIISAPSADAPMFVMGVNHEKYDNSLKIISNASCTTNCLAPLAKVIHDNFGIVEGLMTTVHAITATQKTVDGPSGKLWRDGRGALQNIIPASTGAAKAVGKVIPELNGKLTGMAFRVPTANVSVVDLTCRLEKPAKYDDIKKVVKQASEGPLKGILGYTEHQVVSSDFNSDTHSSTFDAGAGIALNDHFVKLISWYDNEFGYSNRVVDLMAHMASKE
Chain of Nucleotide-binding oligomerization domain-containing protein 2 (Q9HC29 whole entry, the tested form may be a part): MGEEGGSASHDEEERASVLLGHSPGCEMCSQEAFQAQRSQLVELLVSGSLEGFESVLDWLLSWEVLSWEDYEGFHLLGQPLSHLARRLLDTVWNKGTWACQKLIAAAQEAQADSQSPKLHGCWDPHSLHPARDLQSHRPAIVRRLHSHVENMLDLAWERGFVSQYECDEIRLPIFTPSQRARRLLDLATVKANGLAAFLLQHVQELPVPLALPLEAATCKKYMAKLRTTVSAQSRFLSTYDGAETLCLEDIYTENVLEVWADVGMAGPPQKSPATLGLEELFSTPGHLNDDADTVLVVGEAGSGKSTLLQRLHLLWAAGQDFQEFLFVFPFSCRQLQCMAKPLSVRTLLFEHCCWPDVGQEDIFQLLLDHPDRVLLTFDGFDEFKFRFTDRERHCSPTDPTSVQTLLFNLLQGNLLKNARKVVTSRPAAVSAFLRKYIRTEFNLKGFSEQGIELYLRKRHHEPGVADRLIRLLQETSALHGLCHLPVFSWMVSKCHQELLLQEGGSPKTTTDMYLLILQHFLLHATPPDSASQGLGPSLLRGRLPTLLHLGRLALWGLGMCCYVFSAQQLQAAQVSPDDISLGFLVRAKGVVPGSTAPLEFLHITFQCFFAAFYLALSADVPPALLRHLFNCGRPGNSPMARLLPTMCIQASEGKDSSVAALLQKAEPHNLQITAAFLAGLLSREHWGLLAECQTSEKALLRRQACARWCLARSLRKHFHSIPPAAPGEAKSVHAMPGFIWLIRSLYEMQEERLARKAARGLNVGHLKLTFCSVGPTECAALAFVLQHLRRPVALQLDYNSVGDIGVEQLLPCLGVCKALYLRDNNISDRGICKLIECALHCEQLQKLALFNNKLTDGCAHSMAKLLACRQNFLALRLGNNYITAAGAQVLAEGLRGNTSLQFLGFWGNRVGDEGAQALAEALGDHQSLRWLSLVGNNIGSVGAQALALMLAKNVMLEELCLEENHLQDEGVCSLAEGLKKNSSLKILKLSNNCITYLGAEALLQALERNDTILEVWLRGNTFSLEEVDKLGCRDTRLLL
Chain of Nonstructural protein 1 (Q194T2 whole entry): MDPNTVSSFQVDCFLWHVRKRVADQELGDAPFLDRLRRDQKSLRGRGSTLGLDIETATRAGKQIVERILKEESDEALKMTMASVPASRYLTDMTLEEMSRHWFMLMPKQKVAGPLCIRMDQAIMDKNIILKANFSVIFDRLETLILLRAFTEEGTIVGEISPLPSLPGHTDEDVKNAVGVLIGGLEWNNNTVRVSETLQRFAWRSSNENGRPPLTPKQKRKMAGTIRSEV
Chain of Intestinal-type alkaline phosphatase (P09923 whole entry, the tested form may be a part): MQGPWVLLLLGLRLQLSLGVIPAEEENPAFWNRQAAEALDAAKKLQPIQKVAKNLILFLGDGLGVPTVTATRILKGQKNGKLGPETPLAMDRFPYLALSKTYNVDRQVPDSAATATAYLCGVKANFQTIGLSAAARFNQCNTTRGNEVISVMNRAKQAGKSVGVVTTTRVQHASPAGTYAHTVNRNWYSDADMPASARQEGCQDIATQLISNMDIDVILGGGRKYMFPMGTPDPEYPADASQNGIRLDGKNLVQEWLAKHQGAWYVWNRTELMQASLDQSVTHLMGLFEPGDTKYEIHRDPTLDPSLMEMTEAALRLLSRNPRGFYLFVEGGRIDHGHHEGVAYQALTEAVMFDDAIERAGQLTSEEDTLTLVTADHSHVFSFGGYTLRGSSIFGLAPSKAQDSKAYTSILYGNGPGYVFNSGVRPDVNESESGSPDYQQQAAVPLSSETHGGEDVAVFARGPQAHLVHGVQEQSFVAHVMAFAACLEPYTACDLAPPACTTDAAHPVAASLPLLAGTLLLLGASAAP

CN1CCN(C2=C(Cl)C(=O)N(c3cccc(Cl)c3Cl)C2=O)CC1
IC50 [1]: > 100 µM (not active) | IC50 [2]: 2.56 µM (active) | IC50 [3]: 8.74 µM (active)

Cc1ccc(-c2nn(CC(=O)NCc3cc(-c4nn(C)c(=O)c5ccccc45)ccc3C)c(=O)c3ccccc23)cc1
EC50 [4]: 6.29 µM (inconclusive) | EC50 [5]: 4.25 µM (active) | EC50 [6]: 6.28 µM (active) | EC50 [7]: > 133 µM (inactive) | Absolute IC50 (XBP1) [8]: 10 µM | EC50 [9]: 8.99 µM (active) | EC50 [10]: 5.6 µM (inconclusive) | EC50 [11]: 8.15 µM (active) | EC50 [12]: 6.81 µM (active)

COc1cc(/C=C2\SC(=S)N(N(C)c3ccccc3)C2=O)ccc1O
IC50 [13]: 13.1 µM (inactive)

Cc1sc2ncnc(N3CCN(S(=O)(=O)c4ccc(Br)cc4)CC3)c2c1C
EC50 [14]: 4.22 µM (active) | IC50 [15]: 4.16 µM (active) | IC50 [16]: 5.47 µM (active) | AC50 [17]: 3.59 µM (active) | IC50 [18]: > 20 µM (inactive) | AC50 [19]: 6.05 µM (active) | EC50 [20]: 4.21 µM (active) | AC50 [21]: 21.2 µM (active) | IC50 [22]: 11.6 µM (active) | AC50 [23]: 21.5 µM (active) | AC50 [24]: 47.8 µM (active)

CC(C)S(=O)(=O)C1=NSC2=NC(=O)/C(=C\c3ccc(-c4ccccc4)o3)C(=N)N21
IC50 [25]: 45.6 µM (active) | IC50 [26]: 12.6 µM (active) | IC50 [27]: 27.1 µM (active)

CCN(CC)c1ccc(/C=C(\C#N)C(N)=S)cc1
IC50 [28]: 5.92 µM (not active) | EC50 [29]: > 112 µM (not active) | EC50 [30]: 22.7 µM (active) | IC50 [31]: 39.1 µM (active)

Cn1c(SCC(=O)N2c3ccccc3Sc3ccccc32)nc2ccccc21
EC50 [32]: > 30 µM (not active) | EC50 [33]: 1.29 µM (active) | EC50 [34]: 2.77 µM (active)

COc1ccccc1-n1cnc2cc(NCc3ccccc3O)ccc21
EC50 [33]: 1.51 µM (active)

COP(=O)(OC)c1ccc(NCc2cc(O)ccc2O)cc1
IC50 [35]: 9.51 µM (active)
